Consider 12 compounds from PubChem BioAssay (NCI).

Among the test systems are CCRF-CEM leukemia; HCC-2998 colon; HCT-116 colon; HCT-15 colon; HOP-18 NSCLC; NCI/ADR-RES ovarian; OVCAR-3 ovarian; OVCAR-4 ovarian; SR leukemia; TK-10 renal.
Assay in all cases: inhibition of tumour cell growth, NCI panel, 48 h

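Tested at 5 concentrations; 48 h exposure; 96-well plates; endpoints linearly interpolated, else capped at highest concentration. Abbreviation: GI50, concentration required for 50% inhibition of growth. TGI: concentration producing complete growth inhibition.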

`CC(=O)OC1CCC2(C)C3CCC4(C)C(c5ccc(=O)oc5)CC5OC54C3CCC2(O)C1` (stereo not drawn): the TGI with CCRF-CEM leukemia came to 2.7 µM; in the experiment on HCC-2998 colon, 14 µM; in the experiment with HCT-116 colon it was 4.61 µM; in the experiment with HCT-15 colon, 14.6 µM; in the experiment with HOP-18 NSCLC it was 7.38 µM; in the experiment on NCI/ADR-RES ovarian, 6.99 µM. For the same compound, the figures for the TGI in the experiment on OVCAR-3 ovarian and in the experiment on OVCAR-4 ovarian were 2.29 µM and 5.61 µM, respectively.
Turning to `CC(=O)Oc1cccc2c(/C=N/NC(N)=S)ncc(C)c12`, the TGI with CCRF-CEM leukemia was greater than 100 µM; in the experiment on HCC-2998 colon it was 18.9 µM; with HCT-116 colon it was 32.6 µM; in the experiment with HCT-15 colon it was 24.1 µM; in the experiment with NCI/ADR-RES ovarian, 9.47 µM; with OVCAR-3 ovarian it was 32.3 µM. The figures for the TGI with OVCAR-4 ovarian, in the experiment with SR leukemia and in the experiment on TK-10 renal were 38.6 µM, greater than 65.9 µM and 22 µM, respectively.
As to `CC1CC=CC(O)C1` (stereo not drawn), the TGI in the experiment with CCRF-CEM leukemia, in the experiment with HCC-2998 colon, in the experiment on HCT-116 colon, in the experiment on HCT-15 colon, in the experiment on HOP-18 NSCLC and with NCI/ADR-RES ovarian was greater than 100 µM throughout. The TGI in the experiment with OVCAR-3 ovarian and in the experiment on OVCAR-4 ovarian was greater than 100 µM each time.
Regarding `NC(CCCCP(=O)(O)O)C(=O)O` (stereo not drawn), the TGI in the experiment with CCRF-CEM leukemia, in the experiment with HCC-2998 colon, in the experiment with HCT-116 colon, in the experiment with HCT-15 colon, in the experiment with NCI/ADR-RES ovarian and in the experiment on OVCAR-3 ovarian was greater than 100 µM throughout. The TGI with OVCAR-4 ovarian, with SR leukemia and in the experiment with TK-10 renal was greater than 100 µM each time.
Regarding `CCC[CH2][Ge]([CH2]CCC)([CH2]CCC)[O]C(=O)CC(=O)c1ccccc1`, the GI50 is 0.266 µM with CCRF-CEM leukemia; 1.3 µM with HCC-2998 colon; 0.191 µM in the experiment on HCT-116 colon; 0.316 µM with HCT-15 colon; 10.8 µM in the experiment with HOP-18 NSCLC; 2.63 µM in the experiment with OVCAR-3 ovarian. Besides, the GI50 in the experiment with OVCAR-4 ovarian is 2.49 µM; in the experiment on SR leukemia it was 0.707 µM; in the experiment with TK-10 renal, 7.03 µM. In addition, the TGI in the experiment with CCRF-CEM leukemia was determined as 10.6 µM; with HCC-2998 colon, 6.16 µM; in the experiment with HCT-116 colon it was 12.3 µM; with HCT-15 colon, 10.4 µM; with HOP-18 NSCLC, 22.7 µM; with OVCAR-3 ovarian it was 17.6 µM. Also, the TGI in the experiment with OVCAR-4 ovarian came out at 21.3 µM; in the experiment with SR leukemia it was 33.6 µM; in the experiment with TK-10 renal it was 21 µM.
With `NNC(N)Nc1ccccc1` (stereo not drawn), the TGI in the experiment on CCRF-CEM leukemia, in the experiment on HCC-2998 colon, in the experiment on HCT-15 colon, with NCI/ADR-RES ovarian, in the experiment on OVCAR-3 ovarian and in the experiment on OVCAR-4 ovarian was greater than 100 µM throughout. Further, the TGI in the experiment on SR leukemia and with TK-10 renal was greater than 100 µM in each case.
As for `NCCCNc1nc2ccccc2c2c(=O)c3cc(OC(F)(F)F)ccc3sc12`, the figures for the GI50 with HCC-2998 colon, in the experiment on NCI/ADR-RES ovarian and in the experiment on TK-10 renal were 1.71 µM, 1.73 µM and 2.14 µM, respectively. For the same compound, the values for the TGI in the experiment with HCC-2998 colon, in the experiment with NCI/ADR-RES ovarian and in the experiment with TK-10 renal were 3.25 µM, 3.41 µM and 3.74 µM, respectively.
As for `C=CC(Br)(CBr)CCC(Cl)C(C)C` (stereo not drawn), the TGI in the experiment on CCRF-CEM leukemia was found to be 2.64 µM; with HCC-2998 colon, 1.52 µM; in the experiment with HCT-116 colon, 12 µM; in the experiment with OVCAR-3 ovarian it was 4.13 µM; with OVCAR-4 ovarian, 3.29 µM; with SR leukemia, 2.38 µM. The same compound registered a TGI in the experiment on TK-10 renal of 3.5 µM.
Regarding `COc1ccccc1C1C(C(=O)O)=C(CO)Oc2cc3c(cc21)OCO3` (stereo not drawn), the TGI in the experiment with CCRF-CEM leukemia, in the experiment on HCT-15 colon, in the experiment with HOP-18 NSCLC, with OVCAR-3 ovarian and in the experiment on TK-10 renal was greater than 100 µM each time.
`Cc1ccc(S(=O)(=O)Oc2cc(-c3ccccc3)nc3ccccc23)cc1`: the TGI in the experiment with CCRF-CEM leukemia was greater than 100 µM; in the experiment with HCC-2998 colon, 4.49 µM; with HCT-116 colon, 15.9 µM; in the experiment on HCT-15 colon it was greater than 40.3 µM; in the experiment with HOP-18 NSCLC, 45.8 µM; in the experiment with NCI/ADR-RES ovarian, 11.6 µM. The TGI was determined as 5.73 µM in the experiment with OVCAR-3 ovarian and 16.2 µM with OVCAR-4 ovarian.
Consider `Cc1cc(=O)[nH]c(NN2C(Cl)C(=O)C2c2cccc(O)c2)n1` (stereo not drawn), for which the TGI was greater than 100 µM with CCRF-CEM leukemia; greater than 100 µM in the experiment on HCC-2998 colon; greater than 100 µM with HCT-116 colon; greater than 100 µM in the experiment on HCT-15 colon; greater than 100 µM in the experiment on HOP-18 NSCLC; 27.4 µM in the experiment on OVCAR-3 ovarian. Also, the TGI in the experiment with OVCAR-4 ovarian, in the experiment with SR leukemia and with TK-10 renal was greater than 100 µM each time.
As to `O=C(OC(=O)n1ccc2ccccc21)n1ccc2ccccc21`, the TGI in the experiment on CCRF-CEM leukemia, in the experiment with HCC-2998 colon, in the experiment with HCT-116 colon, in the experiment with HCT-15 colon, in the experiment with HOP-18 NSCLC and in the experiment with NCI/ADR-RES ovarian was greater than 100 µM throughout. For the same compound, the TGI in the experiment on OVCAR-3 ovarian and in the experiment on OVCAR-4 ovarian was greater than 100 µM in each case.
